# From patent US12508237B2, “Pharmaceutical composition comprising 4-hexylresorcinol as active ingredient for prevention or treatment of bone disease” (KYUNGPOOK NATIONAL UNIVERSITY INDUSTRY-ACADEMIC COOPERATION …, priority 2019, dated 2025)
# Legend:
# [1] = system: animal model with osteoporosis; assay: blood biochemical analysis of bone resorption and bone formation markers (CTX, ALP, RANKL) in animal model with osteoporosis; format: in vivo, mouse; conditions: 4-HR periodically applied to the skin
# Procedure: To evaluate the effect of 4-hexylresorcinol (4-HR) on bone resorption and promoting bone formation, the levels of CTX, ALP, and RANKL in an animal model with osteoporosis were measured via blood biochemical analysis. CTX is used as a marker for evaluating the degree of bone resorption (bone destruction) in the blood, ALP is a marker that indicates the degree of bone formation secreted by osteoblasts, and RANKL is used as a marker that is secreted from osteoblasts and promotes differentiation of osteoclasts.
# osteoblasts (MC3T3-E1) = assay: osteoblast differentiation by alkaline phosphatase (ALP) and Alizarin red staining; format: cell-based, mouse; conditions: MC3T3-E1 cells, 4-HR 10^−9 M to 10^−6 M (ALP, 7 days) or 10^−9 M to 10^−4 M (Alizarin red, 14-21 days)
# Procedure: MC3T3-E1 (mouse calvaria osteoblast cell line) cells were cultured in α-MEM containing 10% (v/v) FBS, penicillin (100 units/ml), and streptomycin (100 units/ml) using a constant temperature and humidity incubator in the presence of 5% (v/v) CO2 at 37° C. When the culture dish was filled with osteoblasts with 100% confluency, 50 μg/ml of ascorbic acid and 10 mM of β-glycerophosphate were treated to induce cell differentiation. During cell differentiation, the differentiation medium was replaced every 3 days.
# MC3T3-E1 and bone marrow stem cells were inoculated into a 48-well multi-plate at 5×10^4 cells/well, and culture was performed for 7 days with treatment of 4-hexylresorcinol (4-HR) at a concentration of 10^−9 M to 10^−6 M while a differentiation induction medium was replaced every 2 days. After the culture, cells were washed with PBS three times, and a fixative containing 5 ml of citrate acid, 13 ml of acetone, and 1.6 ml of a formaldehyde solution was treated for 45 seconds. Then, the cells were washed twice with PBS, treated with an alkaline-dye mixture, and reacted at room temperature in the darkness for 30 minutes. After removing the solution, cells were washed several times with PBS and observed under a microscope. […]
# osteoclasts [2] = assay: osteoclast differentiation by TRAP staining; format: cell-based; parameters: dose or concentration left out as unconfirmed; conditions: mouse bone marrow cells with M-CSF and RANKL, 4 days, 4-HR
# Procedure: Mouse bone marrow monocyte (BMM) cells were isolated from the femur and tibia in 8-week-old mice. Muscle was removed after the separation of the femur and tibia from the mice euthanized by cervical dislocation, both ends were cut out, and α-MEM was filtered with a syringe to separate bone marrow cells. After centrifuging the isolated bone marrow cells, red blood cell lysis solution was added to hemolyze red blood cells, and then culture was performed for a day in the α-MEM containing 10% (v/v) FBS, penicillin (100 units/ml), and streptomycin (100 units/ml) using the constant temperature and humidity incubator in the presence of 5% (v/v) CO2 at 37° C. Only suspending cells not adhering to the culture dish were collected, treated with 20 ng/ml of M-CSF, and cultured for 3 days to obtain bone marrow-derived monocyte/macrophage. In an attempt to differentiate macrophages into osteoclasts, 20 ng/ml of M-CSF and 30 ng/ml of RANKL were treated, followed by culture for 4 days. Media were replaced every 2 days while differentiation was induced.
# Medullary mononuclear cells isolated from the femur and tibia of mice were treated with 20 ng/ml of M-CSF and reacted for a day. […]
# [3] = system: osteoporosis (OVX) induced mice; assay: micro-CT analysis of femur bone in ovariectomy (OVX) osteoporosis mouse model after 4-HR ointment application; format: in vivo; conditions: ointment containing 2% 4-HR applied to dorsal skin for 4 weeks, compared to osteoporosis (OVX) induced mice
# Procedure: After separating the mouse femur and removing muscle, fixation was performed using 4% PFA at 4° C. for a day. The next day, washing was followed three times with PBS solution to be stored in PBS. The femur stored thereby was analyzed with a Skysan 1272 (Bruker, Massachusetts, USA) model by scanning, in units of 6 μm, the section from 1.6 mm to 2.3 mm below the growth plate. Using micro-CT, during the measurement of trabecular bone volume/tissue volume (BV/TV), trabecular thickness (Tb.Th), trabecular number (Tb.N), trabecular separation (Tb.Sp), and trabecular bone mineral density (BMD), bone volume/tissue volume (BV/TV) and bone mineral density (BMD) of cortical bone was measured as well.
# To evaluate the effect of 4-hexylresorcinol (4-HR) on bone remodeling, the ointment containing 2% 4-HR was applied to the mouse dorsal skin for 4 weeks after induction of osteoporosis via ovariectomy (OVX) in a model with osteoporosis, and the change in bone volume was analyzed by micro-CT.
# osteoclasts [4] = assay: osteoclastic activity by Pit assay on bone slices; format: cell-based, mouse; conditions: differentiated osteoclasts on bone slices, treated with 4-HR for 2 days
# Procedure: Monocytes were sterilized and inoculated on bone slices placed on a 96-well plate, followed by culture for 3 days in the presence of RANKL (30 ng/ml) and M-CSF (30 ng/ml). After 3 days, the differentiated osteoclasts were treated with 4-hexylresorcinol (4-HR), and a culture was performed for 2 days. After 2 days of culture, osteoclasts were removed and bone slices were reacted with horseradish peroxidase-wheat germ agglutinin (Sigma-Aldrich) and then stained with 3,3′-diaminobenzidine (Sigma-Aldrich). Stained cells were analyzed according to the manufacturer's method using a Java-based image analysis program (ImageJ).
# To evaluate the effect of 4-hexylresorcinol (4-HR) on the differentiation and activity of osteoclasts, 4-hexylresorcinol (4-HR) was treated on osteoclasts, and cell differentiation and osteoclastic activity were checked by TRAP staining and PIT assay analysis.
compound,measurement,setting,value
"CCCCCCc1ccc(O)cc1O [4-hexylresorcinol (4-HR), 4-hexylbenzene-1,3-diol]",level of ALP (bone formation marker in blood),[1],increased
same,level of CTX (bone resorption marker in blood),[1],decreased
same,differentiation of osteoblasts (ALP and Alizarin red staining),osteoblasts (MC3T3-E1),differentiation was promoted
same,differentiation of osteoclasts (TRAP staining),osteoclasts [2],inhibited
same,bone density,[3],increased
same,bone volume,[3],increased
same,trabecular number,[3],increased
same,trabecular thickness,[3],increased
same,osteoclastic activity (PIT assay),osteoclasts [4],inhibited
